In brackets after ≈: the same amount, converted by molar mass.

Format in all cases: physicochemical
A short description of data set [1]: Solubility in water. The conditions noted are these: for solubility in 25° C. water compared with known fruquintinib Form I: Comparative Example 1, result in words; for solubility at 1 min: deionized water, 25 °C, water, thermodynamic from solid; for solubility at 1 min / Solubility in Water: 10 mg in 10 ml deionized water, ultrasound 1 min, filtration, HPLC; for Solubility in Water: 25° C. As to the method: High performance liquid chromatography (HPLC) data were collected on Ultimate 3000 and the concentration was tested with the external standard method. […] The specific operation steps: respectively took 10 mg of each of the above samples and put them into a 20 ml glass bottle respectively, added 10 ml deionized water, placed the solution at 25° C. ultrasound for 1 min, then took the samples for filtration and analyzed their concentrations using HPLC; calculated their solubility in water respectively.

Data set [2] in a line: Crystal slurry experiment in water (crystalline form stability). To be noted: Comparative Example 2, result in words. As to the method:
X-ray powder diffraction (XRPD): performed on Bruker D8 Advance diffractometer. Samples were tested at room temperature. Testing conditions: 2θ scan range 3 to 40°, step size 0.02° and speed 0.2 s/step. […] The specific operation steps: respectively took 10 mg of each of the above samples and put them into a 5 ml glass bottle respectively, added 2 ml deionized water, stirred the solution at room temperature for 24 hours, then took the samples for filtration; and analyzed their crystalline forms with XRD.

Data set [3] in a line: Storage stability in desiccators at room temperature and RH 10% to 90%. To be noted: room temperature, 4 months.
The nature of data set [4]: Solubility in water. The conditions noted are these: background statement, conditions not given.

Take `CNC(=O)c1c(C)oc2cc(Oc3ncnc4cc(OC)c(OC)cc34)ccc12.O=C(O)/C=C\C(=O)O`: in “Solubility in water [1]”, the “solubility in 25° C. water compared with known fruquintinib Form I” value is reported as “higher” and the concentration in solution (solubility at 1 min) came to 9.4 µg/mL. In data set [2], the “crystalline form after having been stirred in water for 24 hours” value is recorded as “kept its form unchanged”. In addition, in data set [3], the “appearance, XRPD and melting point after storage” value is reported as “unchanged”.
In the same order, the values of `CNC(=O)c1c(C)oc2cc(Oc3ncnc4cc(OC)c(OC)cc34)ccc12.O=C(O)CC(=O)O` are “higher”, 12 µg/mL, “kept its form unchanged” and “unchanged”.
In the case of `CNC(=O)c1c(C)oc2cc(Oc3ncnc4cc(OC)c(OC)cc34)ccc12` [Compound A], in the data set “Solubility in water [1]” (listed as Crystalline Form of Compound A of the present invention), the “Solubility in Water” value was 9.9 µg/mL (≈ 25.2 µM). Further, in the data set “Solubility in water [1]”, the “solubility in 25° C. water compared with known fruquintinib Form I” value is recorded as “higher”. In data set [2], the “crystalline form after having been stirred in water for 24 hours” value is “kept its form unchanged”. For the same compound, the “appearance, XRPD and melting point after storage” value in data set [3] was “unchanged”.
For `CNC(=O)c1c(C)oc2cc(Oc3ncnc4cc(OC)c(OC)cc34)ccc12` [Known fruquintinib Crystalline Form I, 6-(6,7-dimethoxyquinazoline-4-oxy)-N,2-dimethyl benzofuran-3-formamide, reference compound], the “Solubility in Water” value in “Solubility in water [1]” worked out at 2.2 µg/mL (≈ 5.59 µM). Further, the “solubility in water (inventors' finding)” value in the data set “Solubility in water [4]” is recorded as “poor”.
In the case of `CNC(=O)c1c(C)oc2cc(Oc3ncnc4cc(OC)c(OC)cc34)ccc12` [Known fruquintinib Crystalline Form III, 6-(6,7-dimethoxyquinazoline-4-oxy)-N,2-dimethyl benzofuran-3-formamide, reference compound], in the data set “Solubility in water [1]”, the “Solubility in Water” value came to 2.1 µg/mL (≈ 5.34 µM).
Same read-out and setting: with `CNC(=O)c1c(C)oc2cc(Oc3ncnc4cc(OC)c(OC)cc34)ccc12` [Known fruquintinib Crystalline Form VII, 6-(6,7-dimethoxyquinazoline-4-oxy)-N,2-dimethyl benzofuran-3-formamide, reference compound] the figure was 2.6 µg/mL (≈ 6.61 µM).

Usually solubility stands for the dissolved amount per volume that the medium holds.
